# Assay results taken from paper PMC7866079, “Investigation of Receptor Heteromers Using NanoBRET Ligand Binding” (International Journal of Molecular Sciences, 2021).
# Key:
# [1] = target: T1, β2AR (Homo sapiens, UniProt P07550); experiment: NanoBRET saturation ligand binding, cells expressing Nluc-β2AR
# T1 construct: host or cells: HEK293FT, transient transfection
# Procedure: (§1) All individual experiments were conducted with duplicate wells.
# (§2) All data were presented and analyzed using GraphPad Prism 8.0. Saturation binding data were fitted with one-site nonlinear regression for specific binding. Competition binding data were fitted using logarithmic nonlinear regression (three parameter). Statistical analysis was performed as described in the relevant figure/table legends or in the text, with p < 0.05 considered significant.
# [2] = target: T2, AT1-β2AR heteromer (Homo sapiens, UniProt P07550); experiment: NanoBRET saturation ligand binding, Receptor-HIT configuration, cells expressing Nluc-AT1 + β2AR; conditions: mean ± SEM, n = 8, BODIPY-propranolol saturation, non-specific binding with 10 μM propranolol, read-out: Kd (affinity of binding to AT1-β2AR heteromers)
# T2 construct: expressed in transfected cells; host or cells: HEK293FT, transient cotransfection
# T2 sequence (P07550 whole entry, one chain of several): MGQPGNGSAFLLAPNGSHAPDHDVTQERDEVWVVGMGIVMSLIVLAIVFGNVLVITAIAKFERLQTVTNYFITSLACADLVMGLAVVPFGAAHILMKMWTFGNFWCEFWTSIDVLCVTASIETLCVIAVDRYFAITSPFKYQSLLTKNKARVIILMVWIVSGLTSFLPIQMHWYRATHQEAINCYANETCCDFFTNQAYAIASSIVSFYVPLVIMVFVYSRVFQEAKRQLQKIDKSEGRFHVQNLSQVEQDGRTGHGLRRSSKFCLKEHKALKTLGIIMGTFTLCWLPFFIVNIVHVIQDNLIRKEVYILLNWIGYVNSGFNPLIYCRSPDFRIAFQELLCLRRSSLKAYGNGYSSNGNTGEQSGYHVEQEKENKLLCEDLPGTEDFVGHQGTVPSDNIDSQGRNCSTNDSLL
# Procedure: as §1, §2
# [3] = target: T3, AT1 receptor (Homo sapiens, UniProt P30556); experiment: NanoBRET competition binding of TAMRA-AngII, cells expressing Nluc-AT1; conditions: various concentrations of TAMRA-AngII, increasing concentrations of competitor
# T3 construct: host or cells: HEK293FT, transient transfection
# T3 sequence (P30556 1-359): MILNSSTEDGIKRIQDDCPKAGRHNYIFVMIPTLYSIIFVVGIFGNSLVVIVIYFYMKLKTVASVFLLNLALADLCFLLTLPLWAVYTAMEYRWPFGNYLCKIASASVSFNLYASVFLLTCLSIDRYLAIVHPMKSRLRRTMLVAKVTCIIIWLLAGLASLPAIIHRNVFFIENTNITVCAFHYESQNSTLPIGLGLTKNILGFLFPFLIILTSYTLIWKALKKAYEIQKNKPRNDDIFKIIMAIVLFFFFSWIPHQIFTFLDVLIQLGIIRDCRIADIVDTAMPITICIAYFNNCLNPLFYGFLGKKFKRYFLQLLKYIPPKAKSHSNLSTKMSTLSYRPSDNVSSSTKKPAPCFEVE
# Procedure: Figure 8 Competition binding of TAMRA-AngII to the AT1 receptor and the AT1-AT2 heteromer.
# The relative BRET ratio was calculated by normalizing the data, as described in the figure legends. All individual experiments were conducted with duplicate wells.
# T1 sequence (P07550 whole entry): as the sequence (P07550 whole entry, one chain of several) above
displacement of TAMRA-AngII bound to Nluc-AT1 [3],SMILES,"specific binding to Nluc-β2AR ([1]; cells expressing Nluc-β2AR only, presence or absence of 10 μM propranolol)","Kd ([1]; mean ± SEM, n = 4, cells expressing Nluc-β2AR, BODIPY-propranolol saturation, non-specific binding with 10 μM propranolol, read-out: Kd (affinity of binding to β2ARs)) [nM]",Kd [2] [nM]
,CC[C@H](C)[C@H](NC(=O)[C@H](Cc1ccc(O)cc1)NC(=O)[C@@H](NC(=O)[C@H](CCCNC(=N)N)NC(=O)[C@H](CC(=O)O)NC(=O)CCCCCNC(=O)COc1ccc(/C=C/c2ccc3n2[B-](F)(F)[N+]2=C(c4cccs4)C=CC2=C3)cc1)C(C)C)C(=O)N[C@@H](Cc1c[nH]cn1)C(=O)N1CCC[C@H]1C(=O)N[C@@H](Cc1ccccc1)C(=O)O [BODIPY-AngII],no specific binding,3.9 ± 0.5,8.8 ± 4
unable to see any displacement,Cc1cc(Cn2cnc3c2C[C@@H](C(=O)O)N(C(=O)C(c2ccccc2)c2ccccc2)C3)ccc1N(C)C [PD 123319],,,
